Key:
[1] = system: human precision cut liver slices (PCLS); assay: PCLS RNA-Seq, Stimulation Protocol: TGFb/PDGF+CRV vs TGFb/PDGF+Vehicle; assay type: cell-based; details: for log2FoldChange: TGFb/PDGF+CRV vs TGFb/PDGF+Vehicle; for fold change in RNA: presence of exogenous TGFβ+PDGF-BB, universal in all donors
Experimental: PCLS were obtained from 5 human donors who underwent resection of liver cancer. Replicate slices were collected from healthy margins of the resections and cultured for 4 or 6 days depending on the experimental protocol. In the Nonstimulation Protocol slices were cultured for 6 days and treated for the entire period with DMSO vehicle or 5 μM CRV431. In the Stimulation Protocol slices were rested for 1 day and then administered the cytokines, TGFβ and PDGF-BB, for 3 days to stimulate inflammation and fibrosis. DMSO vehicle, CRV431 (1 and 5 μM), Alk5i (10 μM), obeticholic acid (5 μM), elafibranor (5 μM), resmetirom ([…]), and Aramchol (5 μM) were administered individually as drug treatments in the Stimulation Protocol concurrent with TGFβ+PDGF-BB. Culture medium treatments were replaced daily.
Four types of evaluations were conducted on the PCLS: (a) secretion of inflammation and fibrosis biomarkers into the culture medium, (b) histological staining and quantitation of Sirius red as a measure of tissue fibrosis, (c) gene expression of inflammation and fibrosis biomarkers by RT-PCR, and (d) RNA sequencing (RNA-Seq) of the complete transcriptome. Each of the four types of evaluation is described below: • (a) Biomarker secretion. Spent culture medium was collected daily from duplicate slices for each treatment. ELISAs were used to quantify secretion of monocyte chemoattractant protein (MCP-1), interleukin-6 (IL-6), tissue inhibitor of metalloproteinase-1 (TIMP1), hyaluronic acid, fibronectin, and collagen 1α1. For each donor the mean level of biomarker secretion in each treatment group was expressed as a percentage change relative to DMSO vehicle, the percentages averaged for all donors, and finally the mean daily percentage change calculated from all days of evaluation. Results are shown in FIG. 8A (secreted markers-% daily average change). • (b) Sirius red histological staining. […] Sirius red was quantified morphometrically in the histological sections as the percentage area with Sirius red staining in 10 sections from each treatment. In the Nonstimulation Protocol the quantity of Sirius red staining was expressed relative to the vehicle group. In the Stimulation Protocol the quantity of Sirius red staining was expressed relative to nonstimulated PCLS (0%) and TGFβ+PDGF-BB-stimulated+vehicle PCLS (100%). Results are shown in FIG. 8B (Sirius red staining for tissue fibrosis). • (c) Gene expression by RT-PCR. RNA was isolated from duplicate liver slices per treatment at the end of the experiments and evaluated by RT-PCR for 5 markers of inflammation and fibrosis: MCP-1, IL-6, TIMP1, αSMA, and collagen 1α1. β actin was used as a reference gene to calculate relative levels of each target gene RNA. […] Results are shown in FIG. 8C (gene expression by RT-PCR). • (d) Gene expression by RNA-Seq. RNA sequencing of the complete transcriptome (30 million reads per sample) was conducted on vehicle and 5 μM CRV431 treatment groups from 3 donors both from the Nonstimulation and Stimulation Protocols. Data were analyzed by bioinformatics software programs to identify genes that were differentially expressed between vehicle and CRV431 treatments.
For the evaluation done for (d), 12 samples corresponding to 3 different donor slides which underwent 4 different treatments were studied. the comparisons carried out in this analysis are: (1) TGFb/PDGF+CRV vs TGFb/PDGF+Vehicle (V), and (2) Non-stimulated+CRV vs Non-stimulated+Vehicle. […] Table 1. Samples for evaluation (d)
Quality Control check was performed in all samples. All samples had more than 30 million reads and a quality score average >35 for almost all the bases in the sequences. The duplication levels are expected as it is RNA sequencing, and different copies of the same RNA are expected to be present in the samples. All samples had good amount of reads and quality, therefore all samples passed the QC checked and were included in the analysis. […]

[2] = system: Human adult dermal fibroblasts; assay: Cell viability analysis, dermal fibroblast culture; assay type: cell-based; details: end of 4 days of treatment (so in the source)
[3] = system: human precision cut liver slices (PCLS); assay: PCLS Sirius red tissue fibrosis, Stimulation Protocol (TGFβ+PDGF-BB); assay type: cell-based; details: compared with other NASH drug candidates
Experimental: PCLS were obtained from 5 human donors who underwent resection of liver cancer. Replicate slices were collected from healthy margins of the resections and cultured for 4 or 6 days depending on the experimental protocol. In the Nonstimulation Protocol slices were cultured for 6 days and treated for the entire period with DMSO vehicle or 5 μM CRV431. In the Stimulation Protocol slices were rested for 1 day and then administered the cytokines, TGFβ and PDGF-BB, for 3 days to stimulate inflammation and fibrosis. […]
Four types of evaluations were conducted on the PCLS: (a) secretion of inflammation and fibrosis biomarkers into the culture medium, (b) histological staining and quantitation of Sirius red as a measure of tissue fibrosis, (c) gene expression of inflammation and fibrosis biomarkers by RT-PCR, and (d) RNA sequencing (RNA-Seq) of the complete transcriptome. […] ELISAs were used to quantify secretion of monocyte chemoattractant protein (MCP-1), interleukin-6 (IL-6), tissue inhibitor of metalloproteinase-1 (TIMP1), hyaluronic acid, fibronectin, and collagen 1α1. For each donor the mean level of biomarker secretion in each treatment group was expressed as a percentage change relative to DMSO vehicle, the percentages averaged for all donors, and finally the mean daily percentage change calculated from all days of evaluation. […]

[4] = system: five different types of fibroblasts; assay: Cell viability, summary over five types of fibroblasts; assay type: cell-based, Human; details: at clinically relevant concentrations

Question: For `CC[C@@H]1NC(=O)[C@H]([C@H](O)[C@H](C)CCCCCCNC(C)=O)N(C)C(=O)[C@H](C(C)C)N(C)C(=O)[C@H](CC(C)C)N(C)C(=O)[C@H](CC(C)C)N(C)C(=O)[C@@H](C)NC(=O)[C@H](C)NC(=O)[C@H](CC(C)C)N(C)C(=O)[C@H](C(C)C)NC(=O)[C@H](CC(C)C)N(C)C(=O)[C@@H](C)N(C)C1=O` [CRV431], which log2FoldChange ([1]; gene LIMS3) is on record?
Answer: −1.705

Question: What about the log2FoldChange ([1]; gene LOXL2) of the same molecule?
Answer: −0.948

Question: And the “fold change in RNA” value ([1]; gene LOXL2)?
Answer: −1.9 fold

Question: And the log2FoldChange ([1]; gene MCAM)?
Answer: −0.841

Question: And the log2FoldChange ([1]; gene MEF2C)?
Answer: −1.013

Question: What about the log2FoldChange ([1]; gene MEG3) of the same molecule?
Answer: −0.853

Question: And the log2FoldChange ([1]; gene MRC2)?
Answer: −0.773

Question: And the log2FoldChange ([1]; gene MROH2A)?
Answer: 3.641

Question: And the log2FoldChange ([1]; gene MT-CO1)?
Answer: −0.85

Question: What about the log2FoldChange ([1]; gene NID2) of the same molecule?
Answer: −0.755

Question: What about the log2FoldChange ([1]; gene NXPH4) of the same molecule?
Answer: −0.808

Question: What about the log2FoldChange ([1]; gene PAN2) of the same molecule?
Answer: 1.019

Question: And the log2FoldChange ([1]; gene PANK3)?
Answer: 0.687

Question: And the log2FoldChange ([1]; gene PCDH12)?
Answer: −0.741

Question: What about the log2FoldChange ([1]; gene PHF8) of the same molecule?
Answer: 0.709

Question: What about the log2FoldChange ([1]; gene PKLR) of the same molecule?
Answer: 2.127

Question: And the log2FoldChange ([1]; gene PLXNA2)?
Answer: 1.326

Question: And the log2FoldChange ([1]; gene POU6F1)?
Answer: −1.716

Question: What about the log2FoldChange ([1]; gene PPP1R16B) of the same molecule?
Answer: −1.016

Question: What about the log2FoldChange ([1]; gene RALGPS2) of the same molecule?
Answer: 0.836

Question: What about the log2FoldChange ([1]; gene RBMXL1) of the same molecule?
Answer: −8.265

Question: What about the log2FoldChange ([1]; gene RCCD1) of the same molecule?
Answer: −1.838

Question: And the “fold change in RNA” value ([1]; gene RCCD1)?
Answer: −3.6 fold

Question: What about the log2FoldChange ([1]; gene RHCG) of the same molecule?
Answer: −0.927

Question: What about the log2FoldChange ([1]; gene RPS7P1) of the same molecule?
Answer: 2.668

Question: And the log2FoldChange ([1]; gene SLC4A8)?
Answer: −2.641

Question: And the log2FoldChange ([1]; gene SLC26A6)?
Answer: −0.692

Question: What about the log2FoldChange ([1]; gene SLC39A5) of the same molecule?
Answer: 1.92

Question: What about the log2FoldChange ([1]; gene SMC5) of the same molecule?
Answer: 0.799

Question: What about the log2FoldChange ([1]; gene STRA6) of the same molecule?
Answer: −1.639

Question: And the “fold change in RNA” value ([1]; gene STRA6)?
Answer: −3.1 fold

Question: And the log2FoldChange ([1]; gene TDO2)?
Answer: 0.916

Question: What about the log2FoldChange ([1]; gene TMEM70) of the same molecule?
Answer: 1.062

Question: What about the log2FoldChange ([1]; gene TTYH2) of the same molecule?
Answer: −1.114

Question: And the “fold change in RNA” value ([1]; gene UBD/FAT10)?
Answer: −2.0 fold

Question: What about the log2FoldChange ([1]; gene UBD) of the same molecule?
Answer: −1.035

Question: What about the log2FoldChange ([1]; gene VWA8) of the same molecule?
Answer: 1.514

Question: What about the log2FoldChange ([1]; gene ZC3H10) of the same molecule?
Answer: 1.022

Question: And the log2FoldChange ([1]; gene ZDHHC20)?
Answer: 1.207

Question: What about the log2FoldChange ([1]; gene ZNF461) of the same molecule?
Answer: 1.391

Question: What about the cell viability [2] of the same molecule?
Answer: none of the CRV431 treatments affected cell viability

Question: What about the “preventing TGFβ+PDGF-BB-induced tissue fibrosis” value [3] of the same molecule?
Answer: most effective of five NASH drug candidates

Question: And the cell viability [4]?
Answer: without causing any reduction in cell viability

From US12409206B2, “Use of cyclosporine analogues for treating fibrosis” (Hepion Pharmaceuticals, Inc., priority 2020, dated 2025)
